{"source": "patent US20220243249A1", "about": "“ANTAGONISTS OF CAMKII-DELTA 9 AND USES THEREOF” (PEKING UNIVERSITY, priority 2019, published 2022)", "molecules": {"B1": {"name": "CaMKII-δ9 shRNA: miR30-based CaMKII-δ9 shRNA (SEQ ID NO: 37) targeting exon 16, expressed transgenically in mice (nucleic acid)", "DNA": "GAAGGTATATTGCTGTTGACAGTGAGCGCAATCCACAACCCTGACGGAAATAGTGAAGCCACAGATGTATTTCCGTCAGGGTTGTGGATTATGCCTACTGCCTCGG"}}, "key": {"UBE2T [1]": {"tested_on": "UBE2T", "test": "UBE2T protein level by western blot in NRVMs", "type": "cell-based, rat", "conditions": "for CaMKII-δ9-induced reduction of the UBE2T protein level: β-lac 5 μM, MG132 10 μM", "protocol": "NRVMs were isolated from 1-day-old Sprague-Dawley rats, and adenovirus-mediated gene transfer was implemented using methods described previously (Zhang, T. et al., Nature medicine 22, 175-182, doi: 10.1038/nm.4017 (2016)). NRVMs were exposed to H2O2 (200 μM) or Dox (1 μM) for 24 h.\n(§1) Western blot and co-immunoprecipitation were performed as previously described (Zhang, T. et al., Nature medicine 22, 175-182, doi:10.1038/nm.4017 (2016))."}, "NRVMs": {"tested_on": "NRVMs", "test": "DNA damage by γH2AX and comet assay in NRVMs", "type": "cell-based, rat", "conditions": "β-lac 5 μM, MG132 10 μM", "protocol": "Cultured neonatal rat ventricular cardiomyocytes (NRVMs) were treated as indicated, and then washed with cold PBS, following the protocol of the comet assay kit (Trevigen, Cat #: 4250-050-K) under alkaline conditions. Mean tail moments were quantified for 300-500 cells per sample in each experiment, with Comet Assay Software Project (v1.2.3b1).\n(§2) Cardiomyocyte immunofluorescence was measured as previously described (Erickson, J. R. et al., Physiological reviews 91, 889-915, doi:10.1152/physrev.00018.2010 (2011))."}, "UBE2T [2]": {"tested_on": "UBE2T", "test": "Immunostaining of myc-tagged UBE2T location in NRVMs", "type": "cell-based, rat", "design": "dose or concentration left out as unconfirmed", "protocol": "as §2"}, "CaMKII-δ9": {"tested_on": "CaMKII-δ9", "test": "CaMKII-δ9 protein level, phosphorylation and oxidation in NRVMs under stress", "type": "cell-based, rat", "conditions": "for expression of CaMKII-δ9 (protein): Dox 1 μM or H2O2 200 μM, 24 h", "protocol": "NRVMs were isolated from 1-day-old Sprague-Dawley rats, and adenovirus-mediated gene transfer was implemented using methods described previously (Zhang, T. et al., Nature medicine 22, 175-182, doi: 10.1038/nm.4017 (2016)). […]\nas §1"}, "exon 16 of CaMKII-δ": {"tested_on": "exon 16 of CaMKII-δ", "test": "Transverse aortic constriction (TAC) in CaMKII-δ9 shRNA transgenic mice", "type": "in vivo, mouse", "protocol": "Transverse aortic constriction (TAC) was performed in 6-week-old male mice. Mice were anesthetized under 3% isoflurane via intubation, the chest was opened, the aortic arch was visualized, and a 7-0 silk suture was passed under the arch between the innominate and left common carotid arteries. The suture was secured around both the aorta and a 28-gauge needle, the needle was removed, the chest was closed, and the mouse was extubated. Sham-operated mice underwent an identical procedure except for the aortic ligation. Mice were given buprenorphine via intraperitoneal injection during recovery.\nThe sequence of miR30-based CaMKII-δ9 shRNA was 5′-[…] […]-3′ (SEQ ID NO: 37). The shRNA with an N-terminal EGFP tag and C-terminal BGH poly A sequences was cloned into the pLKO.1 plasmid containing the U6 promoter. After linearization, gel-purification was performed. This construct was microinjected into the pronuclei of fertilized C57BL/6J mouse eggs. PCR was used for genotyping. The primer sequences were 5′-[…]-3′ (forward) (SEQ ID NO: 38) and 5′-[…]-3′ (reverse) (SEQ ID NO: 39).\nEchocardiographic analysis using a Vevo2100 digital imaging system (Visual Sonics, Toronto, ON, Canada) was performed under 1% isoflurane at 6 and 10 weeks of age, with mid-ventricular M and B mode measurements acquired in the parasternal short-axis view at the level of the papillary muscles. Once the mice were acclimated to the procedures, images were stored in digital format on a magnetic optical disk for review and analysis. Measurements of the LV internal end-diastolic diameter (LVIDd) were made at the time of apparent maximal LV diastolic dimension, while measurements of the LV internal end-systolic diameter (LVIDs) were taken at the time of the most anterior systolic excursion of the posterior wall. LV ejection fraction (EF) was calculated by the cubic method: LVEF (%)={(LVIDd)^3−(LVIDs)^3}/(LVIDd)^3×100, and LV fractional shortening (FS) was calculated by FS (%)=(LVIDd−LVIDs)/LVIDd×100. The data were averaged from 5 cardiac cycles.\nHistological analysis of heart tissue was as previously described (Zhang, T. et al. Nature medicine 22, 175-182, doi: 10.1038/nm.4017 (2016)). The CardioTACS™ in situ apoptosis detection kit (Roche Applied Science, Cat #: 11684795910) was used for TUNEL staining as previously described (Zhang, T. et al. Nature medicine 22, 175-182, doi:10.1038/nm.4017 (2016))."}}, "note": "Peptide text beside a SMILES is read from it. * marks the point of attachment. Cbz = O=C(OCc1ccccc1)*"}
{"molecule": "CC(C)C[C@@H](C=O)NC(=O)[C@H](CC(C)C)NC(=O)[C@H](CC(C)C)NC(=O)OCc1ccccc1", "note": "[MG132] (Cbz-Leu-Leu-Leu-aldehyde)", "values": [{"measurement": "CaMKII-δ9-induced reduction of the UBE2T protein level", "setting": "UBE2T [1]", "value": "fully abolished"}, {"measurement": "CaMKII-δ9-mediated γH2AX upregulation", "setting": "NRVMs", "value": "block"}, {"measurement": "subcellular location of UBE2T", "setting": "UBE2T [2]", "value": "present in both the nuclear and cytosolic compartments"}]}
{"molecule": "OO", "note": "[H2O2]", "values": [{"measurement": "expression of CaMKII-δ9 (protein)", "setting": "CaMKII-δ9", "value": "significantly elevated"}, {"measurement": "UBE2T protein level", "setting": "UBE2T [1]; NRVMs, western blot", "value": "decreased"}]}
{"molecule": "COc1cccc2c1C(=O)c1c(O)c3c(c(O)c1C2=O)C[C@@](O)(C(=O)CO)C[C@@H]3O[C@H]1C[C@H](N)[C@H](O)[C@H](C)O1", "note": "[Doxorubicin]", "values": [{"measurement": "expression of CaMKII-δ9 (protein)", "setting": "CaMKII-δ9", "value": "significantly elevated"}, {"measurement": "oxidation level of CaMKII-δ9", "setting": "CaMKII-δ9; Dox 1 μM, 30 and 60 min", "value": "increased"}, {"measurement": "phosphorylation level of CaMKII-δ9", "setting": "CaMKII-δ9; Dox 1 μM, 30 and 60 min", "value": "increased"}]}
{"molecule": "CC(C)[C@H](O)[C@@]12NC(=O)[C@H](C)[C@@H]1OC2=O", "note": "[β-lac, clasto-lactacystin β-lactone]", "values": [{"measurement": "CaMKII-δ9-induced reduction of the UBE2T protein level", "setting": "UBE2T [1]", "value": "fully abolished"}, {"measurement": "CaMKII-δ9-mediated γH2AX upregulation", "setting": "NRVMs", "value": "block"}]}
{"molecule": "B1", "values": [{"measurement": "TAC-induced cardiac DNA damage (γH2AX)", "setting": "exon 16 of CaMKII-δ; 4 weeks after TAC surgery", "value": "reduced"}, {"measurement": "TAC-induced cardiac hypertrophy", "setting": "exon 16 of CaMKII-δ; 4 weeks after TAC surgery", "value": "markedly attenuated"}, {"measurement": "TAC-induced cardiomyocyte death (TUNEL)", "setting": "exon 16 of CaMKII-δ; 4 weeks after TAC surgery", "value": "reduced"}, {"measurement": "TAC-induced contractile dysfunction (EF, FS)", "setting": "exon 16 of CaMKII-δ; 4 weeks after TAC surgery", "value": "markedly attenuated"}, {"measurement": "cardiac UBE2T protein abundance", "setting": "exon 16 of CaMKII-δ; 4 weeks after TAC surgery", "value": "augmented"}, {"measurement": "TAC-induced premature death", "setting": "exon 16 of CaMKII-δ; Kaplan-Meier survival", "value": "markedly attenuated"}]}
